In patent US10894817B2, “Fatty acid modified urocortin-2 analogs for the treatment of diabetes and chronic kidney disease” (priority 2016, dated 2021):
Starred links: 1 amine or outer side, 2 acyl side, 3 side chain; linkers in the order of their positions; H or OH if unused. Non-standard residues stand in square brackets, D forms with d. Residues, ends and D or L forms follow the SMILES beside them. Groups on a side chain read outwards from the residue. *: point of attachment. C20 diacid = O=C(O)CCCCCCCCCCCCCCCCCCC(=O)*; C18 diacid = O=C(O)CCCCCCCCCCCCCCCCC(=O)*; γGlu = O=C(O)[C@H](CCC(=O)[*:2])N[*:1]; Palmitoyl = CCCCCCCCCCCCCCCC(=O)*; NMeI = CC[C@H](C)[C@H](NC)C(=O)O; AEEA = NCCOCCOCC(=O)O

Molecular target: T1, human CRHR2b (Homo sapiens, UniProt Q13324)
T1 construct: expressed in transfected cells; host or cells: Chinese Hamster Ovary (CHO) cells, transient transfection
T1 sequence (Q13324 1-438 isoform Q13324-2): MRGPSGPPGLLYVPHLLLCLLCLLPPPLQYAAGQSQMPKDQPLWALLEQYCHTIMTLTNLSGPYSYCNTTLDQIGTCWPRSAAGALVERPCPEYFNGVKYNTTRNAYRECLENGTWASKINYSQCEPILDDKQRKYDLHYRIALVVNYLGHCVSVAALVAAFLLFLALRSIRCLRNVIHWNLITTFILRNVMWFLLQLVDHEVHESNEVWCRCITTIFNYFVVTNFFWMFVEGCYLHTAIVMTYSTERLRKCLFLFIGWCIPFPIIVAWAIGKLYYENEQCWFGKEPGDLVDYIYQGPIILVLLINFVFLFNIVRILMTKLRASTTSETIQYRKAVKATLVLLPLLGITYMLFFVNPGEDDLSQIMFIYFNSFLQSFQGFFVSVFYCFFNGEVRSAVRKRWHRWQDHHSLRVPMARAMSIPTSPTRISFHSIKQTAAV
Assay: human CRHR2b cell-based cAMP assay
Settings: cAMP assay; Table 26, compounds of Example 9; read-out: hCRHR2b Average EC50
How it was run: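 ED50 values are means ± SEM over several runs, curve-fitted from cAMP in pmol, calibrated against unlabeled-cAMP standards. Detection was HTRF competition, ratio 665/620 nm, after 30 min agonist exposure at 37 °C.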

Compound	EC50 [nM]
CC[C@H](C)[C@H](N)C(=O)N[C@H](C(=O)N[C@@H](CC(C)C)C(=O)N[C@@H](CO)C(=O)N[C@@H](CC(C)C)C(=O)N[C@@H](CC(=O)O)C(=O)N[C@H](C(=O)N1CCC[C@H]1C(=O)N[C@H](C(=O)NCC(=O)N[C@@H](CC(C)C)C(=O)N[C@@H](CC(C)C)C(=O)N[C@@H](CCC(N)=O)C(=O)N[C@H](C(=O)N[C@@H](CC(C)C)C(=O)N[C@@H](CC(C)C)C(=O)N[C@@H](CCC(=O)O)C(=O)N[C@@H](CCC(N)=O)C(=O)N[C@@H](CCC(=O)O)C(=O)N[C@@H](CCCCN)C(=O)N[C@@H](CCC(N)=O)C(=O)N[C@@H](CCC(=O)O)C(=O)N[C@@H](CCCCN)C(=O)N[C@@H](CCC(=O)O)C(=O)N[C@@H](CCCCN)C(=O)N[C@@H](CCCCNC(=O)COCCOCCNC(=O)COCCOCCNC(=O)CC[C@H](NC(=O)CC[C@H](NC(=O)CCCCCCCCCCCCCCCCC(=O)O)C(=O)O)C(=O)O)C(=O)N[C@@H](CCC(N)=O)C(=O)N[C@@H](C)C(=O)N[C@H](C(=O)N[C@H](C(=O)N[C@@H](CC(N)=O)C(=O)N[C@@H](C)C(=O)N[C@@H](CCC(N)=O)C(=O)N[C@H](C(=O)N[C@@H](CC(C)C)C(=O)N[C@@H](C)C(=O)N[C@@H](CCC(N)=O)C(=O)N[C@H](C(N)=O)C(C)C)[C@@H](C)CC)[C@@H](C)O)[C@@H](C)O)[C@@H](C)CC)[C@@H](C)CC)C(C)C)C(C)C [Compound 51] (H-IVLSLDVPIGLLQILLEQEKQEKEKK([AEEA-AEEA-γGlu-γGlu-C18 diacid])QATTNAQILAQV-NH2)	2.42
CC[C@H](C)[C@H](N)C(=O)N[C@H](C(=O)N[C@@H](CC(C)C)C(=O)N[C@@H](CO)C(=O)N[C@@H](CC(C)C)C(=O)N[C@@H](CC(=O)O)C(=O)N[C@H](C(=O)N1CCC[C@H]1C(=O)N[C@H](C(=O)NCC(=O)N[C@@H](CC(C)C)C(=O)N[C@@H](CC(C)C)C(=O)N[C@@H](CCC(N)=O)C(=O)N[C@H](C(=O)N[C@@H](CC(C)C)C(=O)N[C@@H](CC(C)C)C(=O)N[C@@H](CCC(=O)O)C(=O)N[C@@H](CCCCNC(=O)COCCOCCNC(=O)COCCOCCNC(=O)CC[C@H](NC(=O)CC[C@H](NC(=O)CCCCCCCCCCCCCCCCC(=O)O)C(=O)O)C(=O)O)C(=O)N[C@@H](CCC(=O)O)C(=O)N[C@@H](CCCCN)C(=O)N[C@@H](CCC(N)=O)C(=O)N[C@@H](CCC(=O)O)C(=O)N[C@@H](CCCCN)C(=O)N[C@@H](CCC(=O)O)C(=O)N[C@@H](CCCCN)C(=O)N[C@@H](CCC(N)=O)C(=O)N[C@@H](CCC(N)=O)C(=O)N[C@@H](C)C(=O)N[C@H](C(=O)N[C@H](C(=O)N[C@@H](CC(N)=O)C(=O)N[C@@H](C)C(=O)N[C@@H](CCC(N)=O)C(=O)N[C@H](C(=O)N[C@@H](CC(C)C)C(=O)N[C@@H](C)C(=O)N[C@@H](Cc1c[nH]cn1)C(=O)N[C@H](C(N)=O)C(C)C)[C@@H](C)CC)[C@@H](C)O)[C@@H](C)O)[C@@H](C)CC)[C@@H](C)CC)C(C)C)C(C)C [Compound 44] (H-IVLSLDVPIGLLQILLEK([AEEA-AEEA-γGlu-γGlu-C18 diacid])EKQEKEKQQATTNAQILAHV-NH2)	13.4
CC[C@H](C)[C@H](NC)C(=O)N[C@H](C(=O)N[C@@H](CC(C)C)C(=O)N[C@@H](CO)C(=O)N[C@@H](CC(C)C)C(=O)N[C@@H](CC(=O)O)C(=O)N[C@H](C(=O)N1CCC[C@H]1C(=O)N[C@H](C(=O)NCC(=O)N[C@@H](CC(C)C)C(=O)N[C@@H](CC(C)C)C(=O)N[C@@H](CCC(N)=O)C(=O)N[C@H](C(=O)N[C@@H](CC(C)C)C(=O)N[C@@H](CC(C)C)C(=O)N[C@@H](CCC(=O)O)C(=O)N[C@@H](CCC(N)=O)C(=O)N[C@@H](CCC(=O)O)C(=O)N[C@@H](CCCCN)C(=O)N[C@@H](CCC(N)=O)C(=O)N[C@@H](CCC(=O)O)C(=O)N[C@@H](CCCCN)C(=O)N[C@@H](CCC(=O)O)C(=O)N[C@@H](CCCCN)C(=O)N[C@@H](CCC(N)=O)C(=O)N[C@@H](CCC(N)=O)C(=O)N[C@@H](C)C(=O)N[C@@H](CCCCNC(=O)CC[C@H](NC(=O)COCCOCCNC(=O)CC[C@H](NC(=O)CC[C@H](NC(=O)CCCCCCCCCCCCCCCCCCC(=O)O)C(=O)O)C(=O)O)C(=O)O)C(=O)N[C@@H](CCC(=O)O)C(=O)N[C@@H](CC(N)=O)C(=O)N[C@@H](C)C(=O)N[C@@H](CCC(=O)O)C(=O)N[C@H](C(=O)N[C@@H](CC(C)C)C(=O)N[C@@H](C)C(=O)N[C@@H](CCC(N)=O)C(=O)N[C@H](C(N)=O)C(C)C)[C@@H](C)CC)[C@@H](C)CC)[C@@H](C)CC)C(C)C)C(C)C [Compound 59] (H-[NMeI]VLSLDVPIGLLQILLEQEKQEKEKQQAK([γGlu-AEEA-γGlu-γGlu-C20 diacid])ENAEILAQV-NH2)	2.62
CCCCCCCCCCCCCCCC(=O)N[C@@H](CCC(=O)NCCCC[C@H](NC(=O)[C@H](CCC(N)=O)NC(=O)[C@H](CCCCN)NC(=O)[C@H](CCC(=O)O)NC(=O)[C@H](CCC(N)=O)NC(=O)[C@H](CCC(=O)O)NC(=O)[C@H](CC(C)C)NC(=O)[C@H](CC(C)C)NC(=O)[C@@H](NC(=O)[C@H](CCC(N)=O)NC(=O)[C@H](CC(C)C)NC(=O)[C@H](CC(C)C)NC(=O)CNC(=O)[C@@H](NC(=O)[C@@H]1CCCN1C(=O)[C@@H](NC(=O)[C@H](CC(=O)O)NC(=O)[C@H](CC(C)C)NC(=O)[C@H](CO)NC(=O)[C@H](CC(C)C)NC(=O)[C@@H](NC(=O)[C@@H](N)[C@@H](C)CC)C(C)C)C(C)C)[C@@H](C)CC)[C@@H](C)CC)C(=O)N[C@@H](CCCCN)C(=O)N[C@@H](CCC(=O)O)C(=O)N[C@@H](CCCCN)C(=O)N[C@@H](CCC(N)=O)C(=O)N[C@@H](CCC(N)=O)C(=O)N[C@@H](C)C(=O)N[C@H](C(=O)N[C@H](C(=O)N[C@@H](CC(N)=O)C(=O)N[C@@H](C)C(=O)N[C@@H](CCCNC(=N)N)C(=O)N[C@H](C(=O)N[C@@H](CC(C)C)C(=O)N[C@@H](C)C(=O)N[C@@H](CCCNC(=N)N)C(=O)N[C@H](C(N)=O)C(C)C)[C@@H](C)CC)[C@@H](C)O)[C@@H](C)O)C(=O)O [Compound 27] (H-IVLSLDVPIGLLQILLEQEKQK([γGlu-Palmitoyl])KEKQQATTNARILARV-NH2)	31.5
CCCCCCCCCCCCCCCC(=O)N[C@@H](CCC(=O)NCCCC[C@H](NC(=O)[C@H](CCC(=O)O)NC(=O)[C@H](CCC(N)=O)NC(=O)[C@H](CCCCN)NC(=O)[C@H](CCC(=O)O)NC(=O)[C@H](CCC(N)=O)NC(=O)[C@H](CCC(=O)O)NC(=O)[C@H](CC(C)C)NC(=O)[C@H](CC(C)C)NC(=O)[C@@H](NC(=O)[C@H](CCC(N)=O)NC(=O)[C@H](CC(C)C)NC(=O)[C@H](CC(C)C)NC(=O)CNC(=O)[C@@H](NC(=O)[C@@H]1CCCN1C(=O)[C@@H](NC(=O)[C@H](CC(=O)O)NC(=O)[C@H](CC(C)C)NC(=O)[C@H](CO)NC(=O)[C@H](CC(C)C)NC(=O)[C@@H](NC(=O)[C@@H](N)[C@@H](C)CC)C(C)C)C(C)C)[C@@H](C)CC)[C@@H](C)CC)C(=O)N[C@@H](CCC(=O)O)C(=O)N[C@@H](CCCCN)C(=O)N[C@@H](CCC(N)=O)C(=O)N[C@@H](CCC(N)=O)C(=O)N[C@@H](C)C(=O)N[C@H](C(=O)N[C@H](C(=O)N[C@@H](CC(N)=O)C(=O)N[C@@H](C)C(=O)N[C@@H](CCCNC(=N)N)C(=O)N[C@H](C(=O)N[C@@H](CC(C)C)C(=O)N[C@@H](C)C(=O)N[C@@H](CCCNC(=N)N)C(=O)N[C@H](C(N)=O)C(C)C)[C@@H](C)CC)[C@@H](C)O)[C@@H](C)O)C(=O)O [Compound 28] (H-IVLSLDVPIGLLQILLEQEKQEK([γGlu-Palmitoyl])EKQQATTNARILARV-NH2)	83.2
CC[C@H](C)[C@H](N)C(=O)N[C@H](C(=O)N[C@@H](CC(C)C)C(=O)N[C@@H](CO)C(=O)N[C@@H](CC(C)C)C(=O)N[C@@H](CC(=O)O)C(=O)N[C@H](C(=O)N1CCC[C@H]1C(=O)N[C@H](C(=O)NCC(=O)N[C@@H](CC(C)C)C(=O)N[C@@H](CC(C)C)C(=O)N[C@@H](CCC(N)=O)C(=O)N[C@H](C(=O)N[C@@H](CC(C)C)C(=O)N[C@@H](CC(C)C)C(=O)N[C@@H](CCC(=O)O)C(=O)N[C@@H](CCC(N)=O)C(=O)N[C@@H](CCC(=O)O)C(=O)N[C@@H](CCCCN)C(=O)N[C@@H](CCC(N)=O)C(=O)N[C@@H](CCC(=O)O)C(=O)N[C@@H](CCCCN)C(=O)N[C@@H](CCC(=O)O)C(=O)N[C@@H](CCCCN)C(=O)N[C@@H](CCC(N)=O)C(=O)N[C@@H](CCC(N)=O)C(=O)N[C@@H](C)C(=O)N[C@@H](CCCCNC(=O)COCCOCCNC(=O)COCCOCCNC(=O)CC[C@H](NC(=O)CC[C@H](NC(=O)CCCCCCCCCCCCCCCCC(=O)O)C(=O)O)C(=O)O)C(=O)N[C@H](C(=O)N[C@@H](CC(N)=O)C(=O)N[C@@H](C)C(=O)N[C@@H](CCC(N)=O)C(=O)N[C@H](C(=O)N[C@@H](CC(C)C)C(=O)N[C@@H](C)C(=O)N[C@@H](CCC(N)=O)C(=O)N[C@H](C(N)=O)C(C)C)[C@@H](C)CC)[C@@H](C)O)[C@@H](C)CC)[C@@H](C)CC)C(C)C)C(C)C [Compound 52] (H-IVLSLDVPIGLLQILLEQEKQEKEKQQAK([AEEA-AEEA-γGlu-γGlu-C18 diacid])TNAQILAQV-NH2)	1.16
